Results published in ChEMBL document CHEMBL5291721, “A preclinical secondary pharmacology resource illuminates target-adverse drug reaction associations of marketed drugs” (Nat Commun, 2023).
One block for each molecule: values may come before it.

Key:
[1] = target: Gamma-aminobutyric acid receptor subunit alpha-1 (Rattus norvegicus, UniProt P62813)
[2] = target: cGMP-inhibited 3',5'-cyclic phosphodiesterase 3A (Homo sapiens, UniProt Q14432); type: functional
[3] = target: Histamine H2 receptor (Homo sapiens, UniProt P25021); type: functional, cell-based
Histamine H2 receptor, sequence (P25021 whole entry): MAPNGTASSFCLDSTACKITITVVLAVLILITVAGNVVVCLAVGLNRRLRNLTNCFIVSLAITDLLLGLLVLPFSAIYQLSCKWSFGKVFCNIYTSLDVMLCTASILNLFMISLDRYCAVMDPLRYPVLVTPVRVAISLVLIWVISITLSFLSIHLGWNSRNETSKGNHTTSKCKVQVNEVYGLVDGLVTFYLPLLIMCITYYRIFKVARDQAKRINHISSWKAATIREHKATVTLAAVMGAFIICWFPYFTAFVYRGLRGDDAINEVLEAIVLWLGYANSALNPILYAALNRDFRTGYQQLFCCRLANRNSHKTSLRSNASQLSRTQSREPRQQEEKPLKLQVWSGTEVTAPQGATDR

[4] = target: T1, 5-hydroxytryptamine receptor 3A (Homo sapiens, UniProt P46098); type: functional
T1 sequence (P46098 whole entry): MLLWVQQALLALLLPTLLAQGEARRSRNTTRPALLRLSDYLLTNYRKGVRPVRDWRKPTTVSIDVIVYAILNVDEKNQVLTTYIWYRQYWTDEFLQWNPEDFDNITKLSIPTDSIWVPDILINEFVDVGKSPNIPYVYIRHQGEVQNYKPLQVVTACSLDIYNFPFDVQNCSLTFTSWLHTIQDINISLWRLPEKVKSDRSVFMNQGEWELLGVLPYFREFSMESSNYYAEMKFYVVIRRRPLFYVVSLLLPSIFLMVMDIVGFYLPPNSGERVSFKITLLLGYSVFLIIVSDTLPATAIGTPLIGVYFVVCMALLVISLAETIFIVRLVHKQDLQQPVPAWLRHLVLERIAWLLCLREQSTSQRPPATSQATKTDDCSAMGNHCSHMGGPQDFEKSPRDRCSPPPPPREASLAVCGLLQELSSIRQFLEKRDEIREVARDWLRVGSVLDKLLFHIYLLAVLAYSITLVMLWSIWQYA

[5] = target: Kappa-type opioid receptor (Homo sapiens, UniProt P41145)
Kappa-type opioid receptor, sequence (P41145 whole entry): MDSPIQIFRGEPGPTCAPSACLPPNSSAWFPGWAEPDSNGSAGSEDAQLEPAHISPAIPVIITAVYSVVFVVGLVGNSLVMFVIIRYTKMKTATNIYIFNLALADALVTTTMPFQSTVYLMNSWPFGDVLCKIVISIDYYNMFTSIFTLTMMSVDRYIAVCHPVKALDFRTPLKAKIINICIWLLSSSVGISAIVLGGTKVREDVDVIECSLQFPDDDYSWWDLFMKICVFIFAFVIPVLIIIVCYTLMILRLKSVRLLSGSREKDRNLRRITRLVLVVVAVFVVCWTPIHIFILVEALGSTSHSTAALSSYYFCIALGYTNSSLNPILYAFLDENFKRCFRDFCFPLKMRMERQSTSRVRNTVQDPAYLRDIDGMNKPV

[6] = target: T2, Amine oxidase [flavin-containing] A (Homo sapiens, UniProt P21397); type: functional
T2 sequence (P21397 whole entry): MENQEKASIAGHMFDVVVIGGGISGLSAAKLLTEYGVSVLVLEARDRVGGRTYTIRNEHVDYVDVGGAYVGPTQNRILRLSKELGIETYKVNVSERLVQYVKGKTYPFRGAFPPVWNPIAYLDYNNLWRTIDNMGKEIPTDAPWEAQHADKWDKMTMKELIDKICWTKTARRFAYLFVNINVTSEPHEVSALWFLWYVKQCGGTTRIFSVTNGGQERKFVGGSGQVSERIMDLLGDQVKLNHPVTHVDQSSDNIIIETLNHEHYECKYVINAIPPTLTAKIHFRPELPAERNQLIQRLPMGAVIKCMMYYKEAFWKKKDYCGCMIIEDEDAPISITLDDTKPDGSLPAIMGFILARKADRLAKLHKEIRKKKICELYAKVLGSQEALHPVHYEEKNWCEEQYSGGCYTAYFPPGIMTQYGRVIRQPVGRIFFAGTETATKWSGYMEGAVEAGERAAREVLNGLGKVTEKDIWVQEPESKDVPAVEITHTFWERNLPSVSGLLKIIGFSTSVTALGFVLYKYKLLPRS

[7] = target: Beta-1 adrenergic receptor (Homo sapiens, UniProt P08588); type: functional
Beta-1 adrenergic receptor, sequence (P08588 whole entry): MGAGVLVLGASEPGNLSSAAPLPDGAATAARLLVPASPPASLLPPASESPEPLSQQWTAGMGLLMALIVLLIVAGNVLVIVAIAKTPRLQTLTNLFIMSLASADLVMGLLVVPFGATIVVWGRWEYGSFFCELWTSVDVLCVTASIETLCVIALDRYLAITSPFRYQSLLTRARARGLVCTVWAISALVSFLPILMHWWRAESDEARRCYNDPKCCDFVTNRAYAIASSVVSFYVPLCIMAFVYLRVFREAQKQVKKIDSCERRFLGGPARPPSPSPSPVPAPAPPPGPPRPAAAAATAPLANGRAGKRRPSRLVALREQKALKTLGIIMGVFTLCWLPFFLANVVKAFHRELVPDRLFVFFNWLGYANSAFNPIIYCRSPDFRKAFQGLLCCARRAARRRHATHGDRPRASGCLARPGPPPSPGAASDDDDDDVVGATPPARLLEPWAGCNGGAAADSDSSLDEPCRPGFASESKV

[8] = target: Neuronal acetylcholine receptor subunit alpha-4 (Homo sapiens, UniProt P43681)
Neuronal acetylcholine receptor subunit alpha-4, sequence (P43681 whole entry): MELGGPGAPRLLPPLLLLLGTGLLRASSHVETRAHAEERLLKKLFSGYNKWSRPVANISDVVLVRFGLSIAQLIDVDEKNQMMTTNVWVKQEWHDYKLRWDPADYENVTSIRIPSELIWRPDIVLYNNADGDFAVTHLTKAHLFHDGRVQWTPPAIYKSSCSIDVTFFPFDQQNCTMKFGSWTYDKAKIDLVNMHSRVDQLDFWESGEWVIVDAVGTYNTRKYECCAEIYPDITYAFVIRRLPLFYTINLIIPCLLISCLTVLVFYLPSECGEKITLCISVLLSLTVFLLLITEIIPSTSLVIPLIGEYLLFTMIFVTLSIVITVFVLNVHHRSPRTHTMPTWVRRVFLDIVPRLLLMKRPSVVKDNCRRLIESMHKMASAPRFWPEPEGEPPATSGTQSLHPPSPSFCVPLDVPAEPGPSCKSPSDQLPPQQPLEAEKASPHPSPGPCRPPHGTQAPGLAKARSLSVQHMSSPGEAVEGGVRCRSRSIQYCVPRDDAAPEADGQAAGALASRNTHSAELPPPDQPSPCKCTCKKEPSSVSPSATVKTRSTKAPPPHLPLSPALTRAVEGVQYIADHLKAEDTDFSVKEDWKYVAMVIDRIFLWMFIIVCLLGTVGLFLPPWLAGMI

[9] = target: Vasopressin V2 receptor (Homo sapiens, UniProt P30518)
Vasopressin V2 receptor, sequence (P30518 whole entry): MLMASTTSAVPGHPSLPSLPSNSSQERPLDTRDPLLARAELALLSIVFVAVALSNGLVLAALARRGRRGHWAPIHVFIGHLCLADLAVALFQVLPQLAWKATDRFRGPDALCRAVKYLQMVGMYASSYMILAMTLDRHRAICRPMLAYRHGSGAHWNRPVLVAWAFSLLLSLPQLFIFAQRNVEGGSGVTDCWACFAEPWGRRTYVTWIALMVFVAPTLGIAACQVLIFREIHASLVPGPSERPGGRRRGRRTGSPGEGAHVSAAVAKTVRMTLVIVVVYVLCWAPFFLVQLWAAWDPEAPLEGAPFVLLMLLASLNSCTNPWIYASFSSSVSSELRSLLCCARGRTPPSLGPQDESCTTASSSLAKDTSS

[10] = target: T3, Cholecystokinin receptor type A (Homo sapiens, UniProt P32238)
T3 sequence (P32238 whole entry): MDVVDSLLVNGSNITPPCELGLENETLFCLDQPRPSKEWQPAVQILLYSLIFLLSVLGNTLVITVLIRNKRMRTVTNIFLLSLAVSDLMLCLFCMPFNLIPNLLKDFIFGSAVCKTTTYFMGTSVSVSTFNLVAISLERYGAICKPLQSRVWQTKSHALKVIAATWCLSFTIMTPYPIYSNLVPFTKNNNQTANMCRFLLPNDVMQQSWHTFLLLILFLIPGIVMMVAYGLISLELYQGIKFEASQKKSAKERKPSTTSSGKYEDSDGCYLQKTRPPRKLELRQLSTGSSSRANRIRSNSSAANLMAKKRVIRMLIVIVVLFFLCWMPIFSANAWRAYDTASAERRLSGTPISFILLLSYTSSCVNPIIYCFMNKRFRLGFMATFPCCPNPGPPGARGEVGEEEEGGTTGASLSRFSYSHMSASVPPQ

[11] = target: T4, B2 bradykinin receptor (Homo sapiens, UniProt P30411)
T4 sequence (P30411 whole entry): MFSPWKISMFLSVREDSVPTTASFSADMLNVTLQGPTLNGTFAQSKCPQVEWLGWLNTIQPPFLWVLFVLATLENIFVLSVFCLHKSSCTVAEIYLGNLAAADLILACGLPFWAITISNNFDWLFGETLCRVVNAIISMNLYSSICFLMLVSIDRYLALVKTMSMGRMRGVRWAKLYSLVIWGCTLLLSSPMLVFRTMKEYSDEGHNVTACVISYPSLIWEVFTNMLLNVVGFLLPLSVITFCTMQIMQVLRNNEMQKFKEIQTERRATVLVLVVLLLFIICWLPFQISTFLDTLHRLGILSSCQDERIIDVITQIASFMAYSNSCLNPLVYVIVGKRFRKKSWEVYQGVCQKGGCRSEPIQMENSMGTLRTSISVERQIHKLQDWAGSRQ

[12] = target: T5, Neuropeptide Y receptor type 1 (Homo sapiens, UniProt P25929)
T5 sequence (P25929 whole entry): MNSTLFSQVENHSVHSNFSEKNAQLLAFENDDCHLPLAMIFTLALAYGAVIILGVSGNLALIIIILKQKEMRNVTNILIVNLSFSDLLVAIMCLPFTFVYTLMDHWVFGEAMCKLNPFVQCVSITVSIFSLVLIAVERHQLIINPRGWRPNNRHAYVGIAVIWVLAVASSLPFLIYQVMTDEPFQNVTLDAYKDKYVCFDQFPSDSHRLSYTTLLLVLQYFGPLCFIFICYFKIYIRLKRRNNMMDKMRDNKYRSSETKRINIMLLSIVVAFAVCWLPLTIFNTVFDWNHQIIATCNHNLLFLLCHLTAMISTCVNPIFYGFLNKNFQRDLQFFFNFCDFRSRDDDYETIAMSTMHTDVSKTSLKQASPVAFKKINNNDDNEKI
Further: assay procedure not described here.

Gamma-aminobutyric acid receptor subunit alpha-1, sequence (P62813 whole entry): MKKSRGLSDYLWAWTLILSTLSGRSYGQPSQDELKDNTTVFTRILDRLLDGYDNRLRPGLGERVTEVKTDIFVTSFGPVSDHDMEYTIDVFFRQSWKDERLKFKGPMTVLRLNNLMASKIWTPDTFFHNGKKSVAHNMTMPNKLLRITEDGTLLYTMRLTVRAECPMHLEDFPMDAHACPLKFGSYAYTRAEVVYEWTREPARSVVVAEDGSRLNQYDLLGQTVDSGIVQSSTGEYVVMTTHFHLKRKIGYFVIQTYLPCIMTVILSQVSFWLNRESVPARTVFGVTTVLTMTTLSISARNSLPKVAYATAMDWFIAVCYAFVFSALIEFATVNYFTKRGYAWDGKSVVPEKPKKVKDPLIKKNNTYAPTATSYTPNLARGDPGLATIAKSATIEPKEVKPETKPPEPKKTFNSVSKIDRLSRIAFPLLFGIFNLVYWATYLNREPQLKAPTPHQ
cGMP-inhibited 3',5'-cyclic phosphodiesterase 3A, sequence (Q14432 whole entry): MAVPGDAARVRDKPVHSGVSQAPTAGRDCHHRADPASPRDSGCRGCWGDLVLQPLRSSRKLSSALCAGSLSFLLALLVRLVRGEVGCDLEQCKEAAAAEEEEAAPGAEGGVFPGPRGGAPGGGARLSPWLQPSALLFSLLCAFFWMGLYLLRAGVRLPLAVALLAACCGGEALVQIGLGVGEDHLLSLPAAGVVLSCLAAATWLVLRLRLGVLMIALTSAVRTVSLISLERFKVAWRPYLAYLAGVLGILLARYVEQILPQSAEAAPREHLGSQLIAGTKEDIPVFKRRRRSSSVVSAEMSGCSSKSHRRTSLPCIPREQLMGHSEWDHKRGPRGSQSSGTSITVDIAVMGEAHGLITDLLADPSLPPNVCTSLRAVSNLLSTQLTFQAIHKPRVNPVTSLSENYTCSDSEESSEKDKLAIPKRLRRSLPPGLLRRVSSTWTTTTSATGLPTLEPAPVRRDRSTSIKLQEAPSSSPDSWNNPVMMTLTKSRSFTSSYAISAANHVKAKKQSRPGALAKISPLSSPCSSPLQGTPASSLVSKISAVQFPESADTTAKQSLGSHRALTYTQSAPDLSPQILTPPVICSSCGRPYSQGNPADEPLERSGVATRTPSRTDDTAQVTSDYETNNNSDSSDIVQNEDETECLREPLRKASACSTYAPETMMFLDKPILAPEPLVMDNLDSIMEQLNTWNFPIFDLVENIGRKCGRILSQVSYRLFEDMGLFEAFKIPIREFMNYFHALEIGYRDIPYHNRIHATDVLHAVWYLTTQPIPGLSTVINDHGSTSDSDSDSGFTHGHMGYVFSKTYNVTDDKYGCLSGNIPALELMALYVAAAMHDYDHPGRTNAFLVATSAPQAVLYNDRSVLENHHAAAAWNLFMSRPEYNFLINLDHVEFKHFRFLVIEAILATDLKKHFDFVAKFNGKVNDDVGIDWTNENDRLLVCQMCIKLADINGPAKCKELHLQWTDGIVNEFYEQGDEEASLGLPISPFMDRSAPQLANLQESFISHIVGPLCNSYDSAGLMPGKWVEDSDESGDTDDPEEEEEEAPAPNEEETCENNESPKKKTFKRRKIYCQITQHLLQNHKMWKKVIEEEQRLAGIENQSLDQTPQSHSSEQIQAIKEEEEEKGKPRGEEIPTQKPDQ

SMILES: CCCCCCCC(=O)N[C@H](CN1CCCC1)[C@H](O)c1ccc2c(c1)OCCO2
AC50 [1]: > 30 µM

SMILES: CC(C1=C(CCN(C)C)Cc2ccccc21)c1ccccn1 (configuration not stated)
AC50 [1]: > 30 µM

SMILES: CC(=O)OC(C)OC(=O)C(C)c1ccc(-c2ccccc2)c(F)c1 (configuration not stated)
AC50 [1]: > 30 µM

SMILES: C[C@H](N)C(=O)O [ALANINE]
AC50 [1]: > 30 µM

SMILES: O=C1c2c(O)cccc2Cc2cccc(O)c21 [ANTHRALIN]
AC50 [1]: > 3 µM

SMILES: CNC(=O)C[C@@H](N)C(=O)N[C@@H](C(=O)N[C@@H]1C(=O)N2[C@@H]1SC(C)(C)[C@@H]2C(=O)O)c1ccc(O)cc1 [ASPOXICILLIN]
AC50 [1]: > 30 µM

SMILES: COC(=O)C1=C(C)NC(C)=C(C(=O)O[C@H]2CCN(Cc3ccccc3)C2)[C@H]1c1cccc([N+](=O)[O-])c1 [BARNIDIPINE]
AC50 [1]: > 30 µM

SMILES: C[C@@H](O)[C@H]1C(=O)N2C(C(=O)[O-])=C(SC3Cn4cnc[n+]4C3)[C@H](C)[C@H]12 (some centres not stated) [BIAPENEM]
AC50 [1]: > 30 µM

SMILES: CCCCOc1ccc(CC(=O)NO)cc1 [BUFEXAMAC]
AC50 [1]: > 30 µM

SMILES: Cc1nnc(SCC2=C(C(=O)O)N3C(=O)[C@@H](NC(=O)Cn4cc(Cl)c(=O)c(Cl)c4)[C@H]3SC2)s1 [CEFAZEDONE]
AC50 [1]: > 30 µM

SMILES: CO[C@@]1(NC(=O)CSCC#N)C(=O)N2C(C(=O)O)=C(CSc3nnnn3C)CS[C@@H]21 [CEFMETAZOLE]
AC50 [2]: > 30 µM
AC50 [3]: > 30 µM
AC50 [1]: > 30 µM
AC50 [4]: > 30 µM
AC50 [5]: > 30 µM
AC50 [6]: > 30 µM

SMILES: CO/N=C(\C(=O)N[C@@H]1C(=O)N2C(C(=O)[O-])=C(C[n+]3cccc4c3CCC4)CS[C@H]12)c1csc(N)n1 [CEFPIROME]
AC50 [2]: > 30 µM
AC50 [3]: > 30 µM
AC50 [1]: > 30 µM
AC50 [4]: > 30 µM
AC50 [5]: > 30 µM
AC50 [6]: > 30 µM

SMILES: Nc1ncnc(Nc2ccc(Cl)cc2)n1 [CHLORAZANIL]
AC50 [1]: > 30 µM

SMILES: CC[C@H]1OC(=O)[C@H](C)[C@@H](O[C@H]2C[C@@](C)(OC)[C@@H](O)[C@H](C)O2)[C@H](C)[C@@H](O[C@@H]2O[C@H](C)C[C@H](N(C)C)[C@H]2O)[C@](C)(OC)C[C@@H](C)C(=O)[C@H](C)[C@@H](O)[C@]1(C)O [CLARITHROMYCIN]
AC50 [7]: > 30 µM
AC50 [2]: > 30 µM
AC50 [8]: > 30 µM
AC50 [3]: > 30 µM
AC50 [9]: > 30 µM
AC50 [10]: > 30 µM
AC50 [1]: > 30 µM
AC50 [11]: > 30 µM
AC50 [6]: > 30 µM
AC50 [12]: > 30 µM

SMILES: CCC[C@@H]1C[C@@H](C(=O)N[C@@H]([C@H]2O[C@H](SC)[C@H](OP(=O)(O)O)[C@@H](O)[C@H]2O)[C@H](C)Cl)N(C)C1 [CLINDAMYCIN PHOSPHATE]
AC50 [1]: > 30 µM

SMILES: Oc1c(I)cc(Cl)c2cccnc12 [CLIOQUINOL]
AC50 [2]: > 30 µM
AC50 [3]: > 30 µM
AC50 [1]: > 30 µM
AC50 [4]: > 30 µM
AC50 [5]: > 30 µM
AC50 [6]: > 30 µM

SMILES: C[C@@H]1C[C@H]2[C@@H]3C[C@H](F)C4=CC(=O)C=C[C@]4(C)[C@@]3(Cl)[C@@H](O)C[C@]2(C)[C@H]1C(=O)COC(=O)C(C)(C)C [CLOCORTOLONE PIVALATE]
AC50 [1]: > 30 µM

SMILES: O=P(O)(O)C(Cl)(Cl)P(=O)(O)O [CLODRONIC ACID]
AC50 [1]: > 30 µM

SMILES: O=C(CCCN1CC=C(n2c(=O)[nH]c3ccccc32)CC1)c1ccc(F)cc1 [DROPERIDOL]
AC50 [1]: > 30 µM

SMILES: CCOC(=O)c1ccc(OC(=O)CCCCCNC(=N)N)cc1 [GABEXATE]
AC50 [1]: > 30 µM

SMILES: CCCCC/C=C\C/C=C\C/C=C\CCCCC(=O)O [GAMOLENIC ACID]
AC50 [1]: > 30 µM

SMILES: NC(=O)NCCC[C@H](N)C(=O)O [L-CITRULLINE]
AC50 [1]: > 30 µM

SMILES: CC(=O)O[C@H]1C[C@H](O[C@H]2[C@@H](O)C[C@H](O[C@H]3[C@@H](O)C[C@H](O[C@H]4CC[C@@]5(C)[C@H](CC[C@@H]6[C@@H]5C[C@@H](O)[C@]5(C)[C@@H](C7=CC(=O)OC7)CC[C@]65O)C4)O[C@@H]3C)O[C@@H]2C)O[C@H](C)[C@H]1O[C@@H]1O[C@H](CO)[C@@H](O)[C@H](O)[C@H]1O [LANATOSIDE C]
AC50 [1]: > 30 µM

SMILES: Nc1nc(N)nc(Nc2ccc([As]3SCC(CO)S3)cc2)n1 (configuration not stated) [MELARSOPROL]
AC50 [1]: 21 µM

SMILES: CO[C@H]1[C@@H](O)C[C@H](O[C@H]2[C@@H](O)C[C@H](O[C@H]3[C@@H](O)C[C@H](O[C@H]4CC[C@@]5(C)[C@H](CC[C@@H]6[C@@H]5C[C@@H](O)[C@]5(C)[C@@H](C7=CC(=O)OC7)CC[C@]65O)C4)O[C@@H]3C)O[C@@H]2C)O[C@@H]1C [METILDIGOXIN]
AC50 [1]: > 30 µM

SMILES: CC1(C)S[C@@H]2[C@H](NC(=O)[C@H](NC(=O)N3CCN(S(C)(=O)=O)C3=O)c3ccccc3)C(=O)N2[C@H]1C(=O)O [MEZLOCILLIN]
AC50 [1]: > 30 µM

SMILES: CCC(=O)O[C@@H]1CC(=O)O[C@H](C)C/C=C/C=C/[C@H](OC(C)=O)[C@H](C)C[C@H](CC=O)[C@H](O[C@@H]2O[C@H](C)[C@@H](O[C@H]3C[C@@](C)(OC(C)=O)[C@@H](OC(=O)CC)[C@H](C)O3)[C@H](N(C)C)[C@H]2O)[C@H]1OC [MIOCAMYCIN]
AC50 [1]: > 30 µM

SMILES: c1ccc2c(CC3=NCCN3)cccc2c1 [NAPHAZOLINE]
AC50 [1]: > 30 µM

SMILES: O=C(NC(Cc1cc(=O)[nH]c2ccccc12)C(=O)O)c1ccc(Cl)cc1 (configuration not stated) [REBAMIPIDE]
AC50 [1]: > 30 µM

SMILES: CCCCCCCCCCCCCCCCCC(=O)NCCCC[C@H](NC(=O)CC[C@@H](NC(=O)[C@H](C)NC(=O)[C@@H](C)O[C@H]1[C@H](O)[C@@H](CO)OC(O)[C@@H]1NC(C)=O)C(N)=O)C(=O)O (some centres not stated) [ROMURTIDE]
AC50 [1]: > 30 µM

SMILES: CCOC(=O)[C@H](CCc1ccccc1)N[C@H]1CS[C@H](c2cccs2)CN(CC(=O)O)C1=O [TEMOCAPRIL]
AC50 [1]: > 30 µM

SMILES: C[C@@H]1C[C@H]2[C@@H]3CCC4=CC(=O)C=C[C@]4(C)C3=CC[C@]2(C)[C@H]1C(=O)CN1CCN(c2cc(N3CCCC3)nc(N3CCCC3)n2)CC1 [TIRILAZAD]
AC50 [1]: > 30 µM

AC50 [7]: > 10 µM
AC50 [2]: > 30 µM
AC50 [8]: > 10 µM
AC50 [3]: > 10 µM
AC50 [9]: > 10 µM
AC50 [10]: > 10 µM
AC50 [4]: > 10 µM
AC50 [11]: > 10 µM
AC50 [5]: 1.94 µM
AC50 [6]: > 10 µM
AC50 [12]: > 10 µM
SMILES: OCCN1CCN(CC/C=C2/c3ccccc3Sc3ccc(Cl)cc32)CC1 [ZUCLOPENTHIXOL]
